Patent EP4772509A1, “KINESIN KIF18A INHIBITOR, AND APPLICATION THEREOF” (Shanghai Apeiron Therapeutics Company Limited, priority 2023, dated 2025)
Like-named read-outs stand apart in the source and are kept apart here.

Experiments:
[1] = system: OVCAR3 cells; assay: Cell proliferation activity test (CyQUANT Direct); assay type: cell-based; settings: 3 days, 0.2% DMSO, CyQUANT fluorescence
Method: Materials and Cells: OVCAR3 cells were purchased from Nanjing Cobioer Biosciences Co., Ltd. RPMI-1640 medium, fetal bovine serum, and the CyQUANT Direct Cell Proliferation Assay kit were purchased from Thermo Fisher Scientific, USA; 96-well cell culture plates were sourced from Corning, USA.
Cell Culture: OVCAR3 cells were cultured with RPMI-1640 medium containing 10% fetal bovine serum and incubated in a 5% CO2 incubator at 37°C. Only cells in the logarithmic growth phase could be used for the test.
OVCAR3 cells were inoculated into a 96-well cell culture plate at 90 µL per well and incubated overnight in a 5% CO2 incubator at 37°C. The compound powder was dissolved in DMSO to prepare a stock solution of 10 mM. Then gradient dilution was performed for the compounds in the microplate to achieve a final concentration of 0-10 µM. 10 µL of cell culture medium containing compounds was added to each well to make the final DMSO content 0.2%. The cell plates were incubated in a 5% CO2 incubator at 37°C for 3 days. 100 µL of CyQUANT detection reagent was added to each well, reacted at 37°C for 60 min, and fluorescence detection was performed using the PerkinElmer Envision.

[2] = biological target: T1, Human KIF18A (amino acid sequence 1-417) (Homo sapiens, UniProt Q8NI77); assay: Enzymatic activity test (ADP-Glo, microtubule-stimulated ATPase); assay type: biochemical; settings: 60 µg/mL microtubules, 25 µM ATP, 2.5 nM KIF18A protein, 120 min at ambient temperature, chemiluminescence; read-out: KIF18A IC50
T1 construct: purchased Viva Biotech (Shanghai) Ltd
T1 sequence (Q8NI77 1-417): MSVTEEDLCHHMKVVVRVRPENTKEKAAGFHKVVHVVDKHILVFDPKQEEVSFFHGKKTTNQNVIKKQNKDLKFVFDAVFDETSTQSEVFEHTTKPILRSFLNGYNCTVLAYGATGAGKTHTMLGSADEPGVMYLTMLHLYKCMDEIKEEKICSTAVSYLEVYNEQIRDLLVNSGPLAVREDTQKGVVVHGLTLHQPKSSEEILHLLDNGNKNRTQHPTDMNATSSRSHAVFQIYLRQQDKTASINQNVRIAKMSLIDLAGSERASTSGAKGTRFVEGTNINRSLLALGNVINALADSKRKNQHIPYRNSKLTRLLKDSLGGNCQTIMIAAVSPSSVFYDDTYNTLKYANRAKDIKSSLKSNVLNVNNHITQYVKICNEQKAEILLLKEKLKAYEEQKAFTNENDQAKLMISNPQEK
Method: Materials: Human KIF18A (amino acid sequence 1-417) was purchased from Viva Biotech (Shanghai) Ltd.; the ADP-Glo™ protein kinase kit was acquired from Promega, USA; tubulin was sourced from Cytoskeleton, USA; and the 384-well assay plate and Envision multifunctional microplate reader were obtained from PerkinElmer, USA.
Enzymatic Activity Test: The compound powder was dissolved in DMSO to prepare a stock solution of 10 mM. Then gradient dilution was performed for the compounds in the microplate to achieve a final concentration of 0-10 µM. Then, 2.5 µL each of tubulin, compound, ATP, and KIF18A protein were added to the microplate in sequence for reaction at ambient temperature for 120 min. The final concentrations in the enzyme reaction were 60 µg/mL for microtubules, 25 µM for ATP, and 2.5 nM for KIF18A protein. After the enzyme reaction, 10 µL of ADP-GLO reaction reagent was added to each well and incubated at room temperature for 30 min. After that, 20 µL of detection reagent was added to each well and incubated at room temperature for 30 min in the dark. Finally, chemiluminescence detection was performed using the PerkinElmer Envision.

[3] = system: HT29 cells; assay: CyQuant cell proliferation activity test; assay type: cell-based; settings: HT29 at 2000 cells per well, 3 days, 0.2% DMSO, XLFIT
Method: Materials and Cells: HT29 cells were purchased from Nanjing Cobioer Biosciences Co., Ltd.; RPMI-1640 medium, fetal bovine serum, Trypsin-EDTA (0.25%), 96-well plates, and CyQuant reagents were purchased from ThermoFisher (USA); DMSO was purchased from SIGMA (USA).
Cell Culture: HT29 cells were cultured with RPMI-1640 containing 10% fetal bovine serum under the condition of 37°C and 5% CO2. Only cells in the logarithmic growth phase could be used for the test.
Cell Proliferation Activity Test: CyQuant reagent was used to detect the proliferation inhibitory activity of compounds on HT29 cells. The cell density was adjusted, and 100 µL per well was inoculated into a 96-well plate (HT29 at 2000 cells per well), then incubated overnight at 37°C and 5% CO2. Add compounds of various target concentrations (initial concentration of 3000 nM, 3-fold dilution, 9 concentration gradients), and make the DMSO content 0.2%. The cell plate was incubated at 37°C in 5% CO2 for 3 days. CyQuant reagent was added and incubated for 1 h. The plates were read by Envision, and IC50 was calculated using XLFIT.

| Compound | IC50 [1] [nM] | IC50 [2] [nM] | IC50 ([3]; read-out: HT-29 IC50) [nM] | IC50 ([1]; Homo sapiens, OVCAR-3, 72 h) [nM] | IC50 ([3]; Homo sapiens, HT-29, 72 h) [nM] |
| --- | --- | --- | --- | --- | --- |
| 2-Hydroxy-N-(1^4,1^4,5^1,5^1-tetrafluoro-2^6-methyl-4-dioxo-5^2,5^3-dihydro-5^1H-3-aza-2(2,4)-pyrimidin-1(1,3),6(1,4)-dipipe ridin-5(4,5)-benzofurancyclononane-8-en-5^7-yl)-methanesulfonamide [Example 21] | 78 | 450 | 85 |  |  |
| CC(=O)c1cc2c(cc1NS(=O)(=O)CCO)N1CCC(C/C=C/C3CN(CCC3(F)F)c3nc(C)cc(n3)-c3cn-2nn3)CC1 (racemic) [Example 88, N-((3^4Z,7E)-4^5-acetyl-1^4,1^4-difluoro-2^6-methyl-3^1H-2(2,4)-pyrimidin-1(1,3),5(1,4)-dipiperidin-3(4,1)-triazole-4(1,2)-benzocyclooct-7-en-4^4-yl)-2-hydroxyethane-1-sulfonamide] |  | > 3000 |  | > 3000 | > 3000 |
| Cc1cc2nc(n1)N1CCC(F)(F)C(/C=C\CC3CCN(CC3)c3cc(NS(=O)(=O)CCO)c4ccccc4c3C(=O)N2)C1 (single isomer, unassigned) [Example 1A, (cis)-N-(1^4,1^4-difluoro-2^6-methyl-4-oxo-3-aza-2(2,4)-pyrimidin-1(1,3),6(1,4)-dipiperidin-5(1,2)-naphthacyclonon-8-en-5^4-yl)-2-hydroxyethane-1-sulfonamide] | 2790 | > 3000 | 2790 |  |  |
| Cc1cc2nc(n1)N1CCC(F)(F)C(/C=C\CC3CCN(CC3)c3cc(NS(=O)(=O)CCO)c4ccccc4c3C(=O)N2)C1 (single isomer, unassigned) [Example 1B, (cis)-N-(1^4,1^4-difluoro-2^6-methyl-4-oxo-3-aza-2(2,4)-pyrimidin-1(1,3),6(1,4)-dipiperidin-5(1,2)-naphthacyclonon-8-en-5^4-yl)-2-hydroxyethane-1-sulfonamide] | 22 | 220 | 22 |  |  |
| Cc1cc2nc(n1)N1CCC(F)(F)C(/C=C/CC3CCN(CC3)c3cc(NS(=O)(=O)CCO)c4ccccc4c3C(=O)N2)C1 (single isomer, unassigned) [Example 1C, (trans)-N-(1^4,1^4-difluoro-2^6-methyl-4-oxo-3-aza-2(2,4)-pyrimidin-1(1,3),6(1,4)-dipiperidin-5(1,2)-naphthacyclonon-8-en-5 ^4-yl)-2-hydroxyethane-1-sulfonamide] | 1020 | 1060 | 1020 |  |  |
| Cc1cc2nc(n1)N1CCC(F)(F)C(CCCc3ccc(cc3)-c3cc(NS(=O)(=O)CCO)ccc3C(=O)N2)C1 (single isomer, unassigned) [Example 46B, N-(1^4,1^4-difluoro-2^6-methyl-4-oxo-3-aza-2(2,4)-pyrimidin-1(1,3)-piperidin-5(1,2),6(1,4)-diphenylheterocyclononane-5^4-yl)-2-hydroxyethane-1-sulfonamide] |  | 57 | 36 |  |  |
| Cc1cc2nc(n1)C1CN(/C=C/CC3CCN(CC3)c3cc(NS(=O)(=O)CCO)ccc3-c3cn-2nn3)CCC1(F)F (single isomer, unassigned) [Example 84C, N-((3^4Z,7E)-1^4,1^4-difluoro-2^6-methyl-3^1H-2(2,4)-pyrimidin-1(1,3),5(1,4)-dipiperidin-3(1,4)-triazole-4(1,2)-benzocyclooct-7-en-4^4-yl)-2-hydroxyethane-1-sulfonamide] | 38 | 186 |  |  |  |
| Cc1cc2nc(n1)C1CN(/C=C/CC3CCN(CC3)c3cc(NS(=O)(=O)CCO)ccc3-c3cn-2nn3)CCC1(F)F (single isomer, unassigned) [Example 84D, N-((3^4Z,7E)-1^4,1^4-difluoro-2^6-methyl-3^1H-2(2,4)-pyrimidin-1(1,3),5(1,4)-dipiperidin-3(1,4)-triazole-4(1,2)-benzocyclooct-7-en-4^4-yl)-2-hydroxyethane-1-sulfonamide] | > 3000 | 284 |  |  |  |
| Cc1cc2nc(n1)N1CCC(F)=C(/C=C\CC3CCN(CC3)c3cc(NS(=O)(=O)CCO)c4c(c3C(=O)N2)CCC4=O)C1 [Example 3, N-(1^4-fluoro-2^6-methyl-5^1,4-dioxo-11,1^2,1^3,1^6,5^2,5^3-hexahydro-5^1H-3-aza-^2(2,4)-pyrimidin-1(1,5)-pyridin-6(1,4)-piperidin-5(4,5)-indenoheterononane-8-en-5^7-yl)-2-hydroxyethane-1-sulfonamide] |  | 566 |  | 1130 |  |
| Cc1cc2nc(n1)N1CCC(F)(F)C(CC=Cc3ccc(nc3)-c3cc(NS(=O)(=O)CCO)ccc3C(=O)N2)C1 (stereo not drawn) [Example 48, N-(1^4,1^4-difluoro-2^6-methyl-4-oxo-3-aza-2(2,4)-pyrimidin-6(2,5)-pyridin-1(1,3)-piperidin-5(1,2)-phenylheterocyclonon-7-en-5^4-yl)-2-hydroxyethane-1-sulfonamide] |  |  |  | 1210 | 1560 |
| Cc1cc2nc(n1)N1CCC(F)(F)C(CCCc3ccc(cc3)-c3cc(NS(=O)(=O)CCO)c(F)cc3C(=O)N2)C1 (stereo not drawn) [Example 53, 2-Hydroxy-N-(1^4,1^4,5^5-trifluoro-2^6-methyl-4-oxo-3-aza-2(2,4)-pyrimidin-1(1,3)-piperidin-5(1,2),6(1,4)-diphenylheterocyclononane-5^4-yl)ethane-1-sulfonamide] |  | 49 |  | 46 |  |
| Cc1cc2nc(n1)N1CCC(F)(F)C(/C=C\c3csc(c3)-c3cc(NS(=O)(=O)CCO)ccc3C(=O)N2)C1 (stereo not drawn) [Example 67, N-(2^4,2^4-difluoro-1^6-methyl-7-oxo-8-aza-1(2,4)-pyrimidin-2(1,3)-piperidin-5(2,4)-thiophene-6(1,2)-benzeneheterocyclooct-3-en-6^5-yl)-2-hydroxyethane-1-sulfonamide] |  | 86 |  | 481 |  |
| Cc1cc2nc(n1)N1CCC(F)=C(/C=C\CC3CCN(CC3)c3cc(NS(=O)(=O)CCO)ccc3-n3cc-2nn3)C1 [Example 82, N-((3^4Z,7Z)-1^4-fluoro-2^6-inethyl-1^1,1^2,1^3,1^6-tetrahydro-3^1H-2(2,4)-pyrimidin-1(1,5)-pyridin-5(1,4)-piperidin-3(4,1)-triazole-4(1,2)-benzylcyclooct-7-en-4^4-yl)-2-hydroxyethane-1-sulfonamide] |  | 1020 |  | 1280 |  |
| Cc1cc2nc(n1)N1CCC(F)(F)C(/C=C/CC3CCN(CC3)c3cc(NS(=O)(=O)CCO)c(C(=O)N(C)C)cc3-n3cc-2nn3)C1 (stereo not drawn) [Example 93, (3^4Z,7E)-1^4,1^4-difluoro-4^4-((2-hydroxyethyl)sulfonamido)-2^6-methyl-3^1H-2(2,4)-pyrimidin-1(1,3),5(1,4)-dipiperidin-3(4,1)-triazole-4(1,2)-benzocyclooct-7-en-4^5carboxamide] |  |  |  | 91 | 194 |
